The target of one assay is human DAT (hDAT) (Homo sapiens, UniProt Q01959). In words: Radiotracer uptake inhibition in HEK293 cells expressing hDAT. The conditions noted are these: for DAT / NET ratio (uptake inhibition): 1/(DAT IC50) divided by 1/(NET IC50); for DAT / SERT ratio (uptake inhibition): 1/(DAT IC50) divided by 1/(SERT IC50); for IC50: IC50 DAT, inhibition of transporter-mediated uptake, hDAT, [3H]MPP+ 20 nM, mean ± SEM, n=3. It counts as cell-based.

In the next assay the target is human NET (hNET) (Homo sapiens, UniProt P23975). In words: Radiotracer uptake inhibition in HEK293 cells expressing hNET. The assay is classed as cell-based. Particulars: for NET / SERT ratio (uptake inhibition): 1/(NET IC50) divided by 1/(SERT IC50); for IC50: IC50 NET, inhibition of transporter-mediated uptake, hNET, [3H]MPP+ 20 nM, mean ± SEM, n=3.
The target in another assay is human SERT (hSERT) (Homo sapiens, UniProt P31645). In words: Radiotracer uptake inhibition in HEK293 cells expressing hSERT. It counts as cell-based. The conditions noted are these: for IC50: IC50 SERT, inhibition of transporter-mediated uptake, hSERT, [3H]5HT 100 nM, mean ± SEM, n=3.
In assay [1] the target is T1, DAT (Rattus norvegicus, UniProt P23977). Put plainly: Release of [3H]MPP+ from rat striatal synaptosomes. It counts as biochemical. Particulars: for DAT / NET ratio (release): 1/(DAT EC50) divided by 1/(NET EC50); for DAT / NET ratio (release) / DAT / SERT ratio (release): rat brain synaptosomes; for DAT / SERT ratio (release): 1/(DAT EC50) divided by 1/(SERT EC50).
For a further assay, the system named is NET. In words: Release of [3H]MPP+ from rat brain synaptosomes. Particulars: 1/(NET EC50) divided by 1/(SERT EC50). It counts as biochemical.
In a further assay the target is SERT (Rattus norvegicus, UniProt P31652). In words: Release of [3H]5-HT from rat brain synaptosomes. The assay is classed as biochemical.
Assay [2] concerns the target T2, hSERT (Homo sapiens, UniProt P31645). Particulars: for Ionic current mediated via hSERT: cells clamped to −60 mV, representative traces; for Kind of current evoked in SERT-expressing cells: whole-cell patch clamp, in words. Background: In patch-clamp work, channel activity is measured electrically.
Assay [3] concerns vesicular monoamine transporter 2 (VMAT2). Particulars: at concentrations up to 100 μM; ref Partilla et al., 2006; cited from earlier work.
Assay [4] deals with T1, DAT. Particulars: in vitro findings; ref Rothman et al., 2002; cited from earlier work.
Assay [5] has as its system extracellular dopamine and serotonin in rat nucleus accumbens. The conditions noted are these: systemic administration, ref Rothman et al., 2002; cited from earlier work.
For assay [6], the target named is T3, hDAT (Homo sapiens, UniProt Q01959). The conditions noted are these: ref Solis et al., 2016; cited from earlier work.
In assay [7] the target is T3, hDAT. The assay is classed as cell-based. The conditions noted are these: 5 µM, without monensin, HEK293 cells.
The target in the next assay is hNET (Homo sapiens, UniProt P23975). The assay is classed as cell-based. Particulars: 5 µM, without monensin, HEK293 cells.
The target of assay [8] is T2, hSERT. It counts as cell-based. Particulars: 5 µM, without monensin, HEK293 cells.

Each structure is given as a SMILES string. Entries after “also recorded” stand apart in the source; their conditions may differ. Where two headings read alike, the source gives them in different places.

A word on the IC50: it is the point on the concentration scale where inhibition reaches its midpoint. The low end stands for higher potency, the high end for lower potency. Broadly, the EC50 is the concentration at which the effect is half-maximal. The low end stands for higher potency in that assay, the high end for lower potency in that assay.

T3 sequence (Q01959 whole entry): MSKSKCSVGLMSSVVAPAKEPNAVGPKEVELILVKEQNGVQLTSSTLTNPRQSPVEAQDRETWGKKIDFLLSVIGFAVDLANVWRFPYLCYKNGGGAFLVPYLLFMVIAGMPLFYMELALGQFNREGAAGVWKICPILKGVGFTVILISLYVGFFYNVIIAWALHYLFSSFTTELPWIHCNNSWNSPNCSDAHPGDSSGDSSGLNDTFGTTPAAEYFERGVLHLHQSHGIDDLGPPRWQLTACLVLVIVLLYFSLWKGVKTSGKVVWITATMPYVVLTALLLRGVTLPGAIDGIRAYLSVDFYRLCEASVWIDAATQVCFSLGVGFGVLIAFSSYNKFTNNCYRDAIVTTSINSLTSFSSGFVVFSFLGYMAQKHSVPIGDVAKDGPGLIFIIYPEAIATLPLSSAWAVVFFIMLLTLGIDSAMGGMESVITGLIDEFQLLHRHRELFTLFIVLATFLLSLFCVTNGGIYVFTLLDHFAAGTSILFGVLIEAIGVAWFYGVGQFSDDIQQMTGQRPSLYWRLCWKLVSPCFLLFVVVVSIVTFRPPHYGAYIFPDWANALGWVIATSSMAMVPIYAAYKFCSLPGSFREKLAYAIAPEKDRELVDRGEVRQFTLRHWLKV
Sequence of human DAT (hDAT) (Q01959 whole entry): as above
Sequence of SERT (P31652 whole entry): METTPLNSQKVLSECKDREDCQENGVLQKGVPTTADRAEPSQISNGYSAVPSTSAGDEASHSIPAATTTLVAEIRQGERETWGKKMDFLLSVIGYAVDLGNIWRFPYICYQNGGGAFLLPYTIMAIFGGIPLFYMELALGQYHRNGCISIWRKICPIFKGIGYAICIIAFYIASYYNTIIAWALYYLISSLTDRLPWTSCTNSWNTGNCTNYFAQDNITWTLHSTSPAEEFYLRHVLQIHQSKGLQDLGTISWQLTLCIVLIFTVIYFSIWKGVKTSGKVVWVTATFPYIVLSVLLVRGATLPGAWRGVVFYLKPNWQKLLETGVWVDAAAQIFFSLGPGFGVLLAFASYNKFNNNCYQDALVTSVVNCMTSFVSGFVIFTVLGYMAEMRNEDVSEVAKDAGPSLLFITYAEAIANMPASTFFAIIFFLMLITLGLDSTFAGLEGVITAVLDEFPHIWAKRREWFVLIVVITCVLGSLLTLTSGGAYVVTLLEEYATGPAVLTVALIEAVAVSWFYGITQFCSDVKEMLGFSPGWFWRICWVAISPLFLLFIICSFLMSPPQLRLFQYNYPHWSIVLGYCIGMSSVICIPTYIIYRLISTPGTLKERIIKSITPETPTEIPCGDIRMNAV
Sequence of human NET (hNET) (P23975 whole entry): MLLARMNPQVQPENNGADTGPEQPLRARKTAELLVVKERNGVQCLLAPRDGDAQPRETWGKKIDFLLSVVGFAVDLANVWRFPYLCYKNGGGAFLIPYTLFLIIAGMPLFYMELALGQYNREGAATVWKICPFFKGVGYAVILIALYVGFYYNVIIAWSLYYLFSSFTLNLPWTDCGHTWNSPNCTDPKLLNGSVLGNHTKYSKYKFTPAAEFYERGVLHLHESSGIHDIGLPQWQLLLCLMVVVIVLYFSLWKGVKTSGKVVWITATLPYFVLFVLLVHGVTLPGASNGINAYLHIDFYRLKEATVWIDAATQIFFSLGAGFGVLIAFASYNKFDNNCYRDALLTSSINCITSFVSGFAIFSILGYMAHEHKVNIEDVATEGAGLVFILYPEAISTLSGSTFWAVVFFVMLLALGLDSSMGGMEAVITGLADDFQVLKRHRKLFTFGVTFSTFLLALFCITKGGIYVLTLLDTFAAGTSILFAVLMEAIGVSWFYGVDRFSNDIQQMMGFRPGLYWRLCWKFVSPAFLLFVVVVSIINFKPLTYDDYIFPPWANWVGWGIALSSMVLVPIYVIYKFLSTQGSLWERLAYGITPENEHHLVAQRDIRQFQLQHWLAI
Sequence of human SERT (hSERT) (P31645 whole entry): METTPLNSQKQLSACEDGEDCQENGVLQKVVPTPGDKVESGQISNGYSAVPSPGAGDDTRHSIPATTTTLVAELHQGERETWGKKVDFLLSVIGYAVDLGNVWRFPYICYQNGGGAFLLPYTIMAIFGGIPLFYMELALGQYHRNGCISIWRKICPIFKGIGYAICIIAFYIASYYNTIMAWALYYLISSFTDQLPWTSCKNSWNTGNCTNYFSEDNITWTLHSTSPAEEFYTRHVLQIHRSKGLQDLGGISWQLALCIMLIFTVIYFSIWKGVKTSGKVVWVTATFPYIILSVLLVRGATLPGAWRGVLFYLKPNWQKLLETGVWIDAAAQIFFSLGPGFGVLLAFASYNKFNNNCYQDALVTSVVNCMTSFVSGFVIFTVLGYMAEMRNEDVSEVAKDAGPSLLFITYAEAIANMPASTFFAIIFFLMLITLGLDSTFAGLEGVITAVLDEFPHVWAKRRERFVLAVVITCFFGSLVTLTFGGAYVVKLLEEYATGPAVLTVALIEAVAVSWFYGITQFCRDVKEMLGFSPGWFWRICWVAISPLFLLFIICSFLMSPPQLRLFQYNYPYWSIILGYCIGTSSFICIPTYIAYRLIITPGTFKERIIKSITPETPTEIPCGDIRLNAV
T2 sequence (P31645 whole entry): as above
T1 sequence (P23977 whole entry): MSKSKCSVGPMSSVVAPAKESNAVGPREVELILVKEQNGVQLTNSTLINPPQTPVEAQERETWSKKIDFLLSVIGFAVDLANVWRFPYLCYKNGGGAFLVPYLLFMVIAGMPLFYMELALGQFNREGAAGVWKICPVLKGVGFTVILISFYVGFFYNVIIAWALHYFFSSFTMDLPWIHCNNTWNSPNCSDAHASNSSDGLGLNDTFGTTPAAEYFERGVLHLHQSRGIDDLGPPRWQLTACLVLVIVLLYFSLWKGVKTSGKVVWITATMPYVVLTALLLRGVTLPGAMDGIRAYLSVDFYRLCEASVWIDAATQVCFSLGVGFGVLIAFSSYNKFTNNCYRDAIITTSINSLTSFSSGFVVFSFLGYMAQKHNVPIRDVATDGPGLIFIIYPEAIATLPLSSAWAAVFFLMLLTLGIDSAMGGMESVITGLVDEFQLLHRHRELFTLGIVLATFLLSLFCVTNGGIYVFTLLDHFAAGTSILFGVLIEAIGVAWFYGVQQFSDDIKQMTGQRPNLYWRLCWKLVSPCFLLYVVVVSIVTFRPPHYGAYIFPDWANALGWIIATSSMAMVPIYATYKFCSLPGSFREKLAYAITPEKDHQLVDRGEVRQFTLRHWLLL
Sequence of hNET (P23975 whole entry): as the sequence (P23975 whole entry) above

Take `CC1NCCOC1c1cccc(F)c1` (centres unmarked) [3-FPM, 2-(3-fluorophenyl)-3-methylmorpholine]: on human DAT (hDAT), the “DAT / NET ratio (uptake inhibition)” value is given as 1.31, the “DAT / SERT ratio (uptake inhibition)” value is listed as 96.4 and 1160 ± 290 nM corresponded to half-maximal inhibition (IC50). On human NET (hNET), the “NET / SERT ratio (uptake inhibition)” value turned out to be 73.7 and the IC50 was 1510 ± 170 nM. Besides, at human SERT (hSERT), the IC50 was found to be 112 ± 13.1 µM. In addition, on DAT [1], the EC50 is 60 ± 4 nM, the “DAT / NET ratio (release)” value was 0.28 and the “DAT / SERT ratio (release)” value stood at 21. In addition, the “NET / SERT ratio (release)” value in the assay on NET was 75. The compound also returned an EC50 at SERT of 1270 ± 207 nM. Further, the “Ionic current mediated via hSERT” value on hSERT [2] (10 µM) is reported as −3.8 pA. The “Kind of current evoked in SERT-expressing cells” value (from here on “Kind of current evoked”) on hSERT [2] was “inwardly directed ionic currents”.
As to `COC(=O)[C@H]1[C@@H](OC(=O)c2ccccc2)C[C@@H]2CC[C@H]1N2C` [cocaine, reference compound], the “Ionic current mediated via hSERT” value at hSERT [2] (10 µM) is recorded as “outwardly directed current”.
Regarding `NCCc1c[nH]c2ccc(O)cc12` [5-HT, 5-hydroxytryptamine, reference compound], the “Ionic current mediated via hSERT” value at hSERT [2] (30 µM) was −7 pA. At hSERT [2], the “Kind of current evoked” value was “inwardly directed ionic currents”.
For the compound `CC1NCCOC1c1ccccc1` (centres unmarked) [phenmetrazine], the “Interaction with VMAT2 as an inhibitor or substrate” value in assay [3] is listed as “does not interact”. On DAT [4], the “DAT-selectivity compared to SERT” value is given as “at least 10 fold”. Also, the “Extracellular dopamine and serotonin in nucleus accumbens” value in assay [5] is recorded as “dose-related elevations”. Also, at hDAT [6], the “Current induced in cells expressing hDAT” value was “inwardly-directed sodium current”.
In the case of `CC1NCCOC1c1ccc(F)cc1` (centres unmarked) [4-FPM, 2-(4-fluorophenyl)-3-methylmorpholine], on human DAT (hDAT), the “DAT / NET ratio (uptake inhibition)” value was 0.96; the “DAT / SERT ratio (uptake inhibition)” value is on record as 41.2; the midpoint of inhibition, the IC50, lay at 2140 ± 390 nM. In addition, at human NET (hNET), the “NET / SERT ratio (uptake inhibition)” value came to 42.9 and 2050 ± 280 nM corresponded to half-maximal inhibition (IC50). Besides, it took 88.1 ± 1.83 µM to reach half-maximal inhibition on human SERT (hSERT) (IC50). Further, on hDAT [7], the “Effect on efflux of [3H]MPP+ via hDAT versus basal” value was “increased tritium outflow above basal levels”. Moreover, on hNET, the “Effect on efflux of [3H]MPP+ via hNET versus basal” value was “increased tritium outflow above basal levels”. Also, the “Effect on efflux of [3H]5-HT via hSERT versus basal” value at hSERT [8] was “significantly enhanced basal release; also recorded: moderate release”. Besides, at DAT [1], the EC50 stood at 191 ± 17 nM, the “DAT / NET ratio (release)” value is given as 0.30 and the “DAT / SERT ratio (release)” value is 10. In addition, in the assay with NET, the “NET / SERT ratio (release)” value is 33. Moreover, the EC50 on SERT was 1890 ± 424 nM. Besides, at hSERT [2] (10 µM), the “Ionic current mediated via hSERT” value is −2.5 pA. For the same compound, on hSERT [2], the “Kind of current evoked” value is “inwardly directed ionic currents”.
Turning to `CC1NCCOC1c1ccccc1F` (centres unmarked) [2-FPM, 2-(2-Fluorophenyl)-3-methylmorpholine], at human DAT (hDAT), the “DAT / NET ratio (uptake inhibition)” value stood at 0.97, the “DAT / SERT ratio (uptake inhibition)” value is 340.1 and the concentration for half-maximal inhibition (IC50) is 1330 ± 90 nM. On human NET (hNET), the “NET / SERT ratio (uptake inhibition)” value is 351.4 and it took 1290 ± 30 nM to reach half-maximal inhibition (IC50). At human SERT (hSERT), the 50% inhibitory concentration (IC50) was found to be 454 ± 15.4 µM. For the same compound, the “Effect on SERT mediated uptake” value on human SERT (hSERT) (at concentrations below 30 µM) was “no obvious effect”. Besides, at hDAT [7], the “Effect on efflux of [3H]MPP+ via hDAT versus basal” value is recorded as “increased tritium outflow above basal levels”. In addition, the “Effect on efflux of [3H]MPP+ via hNET versus basal” value at hNET is “increased tritium outflow above basal levels”. In addition, the “Effect on efflux of [3H]5-HT via hSERT versus basal” value at hSERT [8] is on record as “no detectable effect”. For the same compound, at DAT [1], the EC50 was determined as 112 ± 10 nM, the “DAT / NET ratio (release)” value was found to be 0.25 and the “DAT / SERT ratio (release)” value turned out to be 43. Besides, the “NET / SERT ratio (release)” value in the assay on NET is given as 172. In addition, the EC50 on SERT amounted to 4810 ± 1260 nM. For the same compound, the “Ionic current mediated via hSERT” value at hSERT [2] (30 µM) is given as −4 pA. The “Kind of current evoked” value at hSERT [2] is given as “inwardly directed ionic currents”.

The values above are taken from article PMC7294773 (Neuropharmacology, 2017).
